The supplement of paper PMC10307832

Tests used:
Test in all cases: relative viability (nuclei count vs DMSO), 5 days (fraction); higher = more cells survive
[1] = compound: C=C(c1ccc(C(=O)O)cc1)c1cc2c(cc1C)C(C)(C)CCC2(C)C [Bexarotene] + NC(=O)Nc1cc(-c2cccc(F)c2)sc1C(=O)N[C@H]1CCCNC1 [AZD7762] (partner 0.2 µM)
Procedure, shortened: (§1)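 Dosing by pin tool came one day after lung cancer cell lines were seeded in 1536-well plates, using either one drug or a fixed anchor-drug dose plus five library-drug doses (not always all listed) in √10 steps. After 5 days, nuclei were counted on 4× images. Relative viability is treated-well nuclei count divided by vehicle-well nuclei count, and values are medians of duplicate plates.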

[2] = compound: C=C(c1ccc(C(=O)O)cc1)c1cc2c(cc1C)C(C)(C)CCC2(C)C [Bexarotene] + Nc1ncn([C@H]2C[C@H](O)[C@@H](CO)O2)c(=O)n1 [Decitabine] (partner 2 µM)
Procedure, shortened: as §1

[3] = compound: C=C(c1ccc(C(=O)O)cc1)c1cc2c(cc1C)C(C)(C)CCC2(C)C [Bexarotene] + O=C(c1cc(Cc2n[nH]c(=O)c3ccccc23)ccc1F)N1CCN(C(=O)C2CC2)CC1 [Olaparib] (partner 8 µM)
Procedure, shortened: as §1

[4] = compound: C=C(c1ccc(C(=O)O)cc1)c1cc2c(cc1C)C(C)(C)CCC2(C)C [Bexarotene] + CS(=O)(=O)CCNCc1ccc(-c2ccc3ncnc(Nc4ccc(OCc5cccc(F)c5)c(Cl)c4)c3c2)o1 [Lapatinib] (partner 2 µM)
Procedure, shortened: as §1

Cell Line | relative viability ([1]; first compound 0.08 µM) | relative viability ([1]; first compound 0.253 µM) | relative viability ([1]; first compound 0.8 µM) | relative viability ([1]; first compound 2.53 µM) | relative viability ([1]; first compound 8 µM) | relative viability ([2]; first compound 0.08 µM) | relative viability ([2]; first compound 0.253 µM) | relative viability ([2]; first compound 0.8 µM) | relative viability ([2]; first compound 2.53 µM) | relative viability ([2]; first compound 8 µM) | relative viability ([3]; first compound 0.08 µM) | relative viability ([3]; first compound 0.253 µM) | relative viability ([3]; first compound 0.8 µM) | relative viability ([3]; first compound 2.53 µM) | relative viability ([3]; first compound 8 µM) | relative viability ([4]; first compound 0.08 µM) | relative viability ([4]; first compound 0.253 µM) | relative viability ([4]; first compound 0.8 µM) | relative viability ([4]; first compound 2.53 µM) | relative viability ([4]; first compound 8 µM)
NCI-H2405 | 0.887 | 0.681 | 0.711 | 0.761 | 0.801 | 0.887 | 0.729 | 0.653 | 0.711 | 0.775 | 0.93 | 0.849 | 0.7 | 0.852 | 0.83 | 1.16 | 1.07 | 0.824 | 1.08 | 1.24
NCI-H3122 | 1.05 | 1 | 0.944 | 0.968 | 1.13 | 0.521 | 0.385 | 0.416 | 0.415 | 0.365 | 0.667 | 0.751 | 0.617 | 0.645 | 0.618 | 1.09 | 1.06 | 1.12 | 1.08 | 1.12
PC-3 [JPC-3] | 0.958 | 0.705 | 0.785 | 0.651 | 0.709 | 0.874 | 0.865 | 0.88 | 0.745 | 0.781 | 1.01 | 1.1 | 1.02 | 1.06 | 0.938 | 0.519 | 0.48 | 0.427 | 0.466 | 0.446
PC-14 | 0.357 | 0.436 | 0.415 | 0.299 | 0.338 | 0.288 | 0.251 | 0.251 | 0.206 | 0.209 | 0.268 | 0.349 | 0.243 | 0.213 | 0.214 | 0.347 | 0.401 | 0.365 | 0.327 | 0.337
RERF-LC-KJ | 0.97 | 0.918 | 0.873 | 1.03 | 0.849 | 0.692 | 0.656 | 0.682 | 0.7 | 0.739 | 0.991 | 0.885 | 0.812 | 0.888 | 0.865 | 0.798 | 0.799 | 0.702 | 0.767 | 0.757
